Experimental data from PubChem BioAssay AID248 (DTP/NCI, 2004).
Several values for one entry are separate records, joined by “and”; a condition that tells them apart may be missing. Equal entries are not always repeated. Inconclusive results and toxic doses are left out. Cut-off read from the data, not from the text of the source: active = T/C of 150% or more; inactive = T/C below 125%.

Test system: L1210 leukemia ip in BDF1 mice, survival T/C
Assay: NCI In Vivo Anticancer Drug Screen. Data for tumor model L1210 Leukemia (intraperitoneal) in B6D2F1 (BDF1) mice
Conditions: endpoint: mean survival time, higher = longer survival
In short: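 Transplanted-tumor mice were given test agent; controls received vehicle only. Survival readings from the two groups were divided (treated over control).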

[1] = dose: 100.0 mg/kg/injection, schedule: Q04DX003 (ip), vehicle: saline with Tween-80
[2] = dose: 200.0 mg/kg/injection, schedule: Q04DX003 (ip), vehicle: saline with Tween-80
[3] = dose: 400.0 mg/kg/injection, schedule: Q04DX003 (ip), vehicle: saline with Tween-80
[4] = dose: 100.0 mg/kg/injection, schedule: Q04DX002 (ip), vehicle: saline with Tween-80
[5] = dose: 200.0 mg/kg/injection, schedule: Q04DX002 (ip), vehicle: saline with Tween-80
[6] = dose: 100.0 mg/kg/injection, schedule: Q01DX009 (ip), vehicle: Klucel (hydroxypropylcellulose) (HPC)
[7] = dose: 200.0 mg/kg/injection, schedule: Q01DX009 (ip), vehicle: Klucel (hydroxypropylcellulose) (HPC)
[8] = dose: 50.0 mg/kg/injection, schedule: Q01DX009 (ip), vehicle: saline
[9] = dose: 50.0 mg/kg/injection, schedule: Q04DX003 (ip), vehicle: saline
[10] = dose: 100.0 mg/kg/injection, schedule: Q01DX009 (ip), vehicle: saline
[11] = dose: 100.0 mg/kg/injection, schedule: Q04DX003 (ip), vehicle: saline
[12] = dose: 200.0 mg/kg/injection, schedule: Q04DX003 (ip), vehicle: saline
[13] = dose: 100.0 mg/kg/injection, schedule: Q01DX001 (ip), vehicle: saline
[14] = dose: 200.0 mg/kg/injection, schedule: Q01DX001 (ip), vehicle: saline
[15] = dose: 25.0 mg/kg/injection, schedule: Q01DX009 (ip), vehicle: Klucel (hydroxypropylcellulose) (HPC)
[16] = dose: 50.0 mg/kg/injection, schedule: Q01DX009 (ip), vehicle: Klucel (hydroxypropylcellulose) (HPC)
[17] = dose: 100.0 mg/kg/injection, schedule: Q04DX003 (ip), vehicle: Klucel (hydroxypropylcellulose) (HPC)
[18] = dose: 200.0 mg/kg/injection, schedule: Q04DX003 (ip), vehicle: Klucel (hydroxypropylcellulose) (HPC)
[19] = dose: 400.0 mg/kg/injection, schedule: Q01DX009 (ip), vehicle: Klucel (hydroxypropylcellulose) (HPC)
[20] = dose: 400.0 mg/kg/injection, schedule: Q04DX003 (ip), vehicle: Klucel (hydroxypropylcellulose) (HPC)
[21] = dose: 200.0 mg/kg/injection, schedule: Q01DX009 (ip), vehicle: saline
[22] = dose: 400.0 mg/kg/injection, schedule: Q04DX003 (ip), vehicle: saline
[23] = dose: 100.0 mg/kg/injection, schedule: Q01DX009 (ip), vehicle: saline with Tween-80
[24] = dose: 200.0 mg/kg/injection, schedule: Q01DX009 (ip), vehicle: saline with Tween-80
[25] = dose: 400.0 mg/kg/injection, schedule: Q01DX009 (ip), vehicle: saline with Tween-80

Measured: T/C

Cc1cccc(/C=N\OCc2ccccc2)n1
inactive: [1] 98 % of control | [2] 98 % of control | [3] 98 % of control

CCCn1c2c(c(=O)n(CC)c1=O)SC(OCC)C(=O)N2 (stereo unspecified)
inactive: dose: 78.0 mg/kg/injection, schedule: Q01DX Z (ip), vehicle: other 96 % of control and 103 % of control | dose: 116.0 mg/kg/injection, schedule: Q01DX Z (ip), vehicle: other 108 % of control and 110 % of control | dose: 175.0 mg/kg/injection, schedule: Q01DX Z (ip), vehicle: other 116 % of control and 87 % of control | dose: 262.5 mg/kg/injection, schedule: Q01DX Z (ip), vehicle: other 92 % of control

Cc1cc(Br)cc(C(=O)Cl)c1O
inactive: [4] 92 % of control | [5] 96 % of control | dose: 400.0 mg/kg/injection, schedule: Q04DX002 (ip), vehicle: saline with Tween-80 100 % of control

Cc1nc(N)c(N)nc1C
inactive: dose: 12.5 mg/kg/injection, schedule: Q01DX009 (ip), vehicle: saline with Tween-80 112 % of control | dose: 25.0 mg/kg/injection, schedule: Q01DX009 (ip), vehicle: saline with Tween-80 101 % of control | dose: 25.0 mg/kg/injection, schedule: Q04DX003 (ip), vehicle: saline with Tween-80 106 % of control | dose: 50.0 mg/kg/injection, schedule: Q01DX009 (ip), vehicle: saline with Tween-80 101 % of control | dose: 50.0 mg/kg/injection, schedule: Q04DX003 (ip), vehicle: saline with Tween-80 101 % of control

CCCCCSP(SCCCCC)c1ccccc1
inactive: [6] 92 % of control | [7] 94 % of control

CN1CC(COC(=O)CCc2ccc(N(CCCl)CCCl)cc2)C=C2c3cccc4[nH]cc(c34)C[C@H]21 (stereo partly specified)
inactive: dose: 3.12 mg/kg/injection, schedule: Q01DX009 (ip), vehicle: saline 104 % of control | dose: 6.25 mg/kg/injection, schedule: Q01DX009 (ip), vehicle: saline 108 % of control | dose: 12.5 mg/kg/injection, schedule: Q01DX009 (ip), vehicle: saline 110 % of control and 114 % of control | dose: 25.0 mg/kg/injection, schedule: Q01DX009 (ip), vehicle: saline 117 % of control | dose: 25.0 mg/kg/injection, schedule: Q04DX003 (ip), vehicle: saline 93 % of control and 107 % of control | [8] 117 % of control | [9] 109 % of control and 117 % of control | [10] 91 % of control | [11] 112 % of control | [12] 124 % of control

NC1CCSCC1
inactive: [13] 104 % of control | [14] 96 % of control | dose: 400.0 mg/kg/injection, schedule: Q01DX001 (ip), vehicle: saline 96 % of control

CNC(=O)Oc1ccccc1C(N)=O
inactive: [15] 110 % of control | [16] 96 % of control | [6] 96 % of control and 92 % of control

COC(=O)c1ccc(OS(=O)(=O)c2cccc([N+](=O)[O-])c2)cc1
inactive: [6] 96 % of control | [17] 90 % of control | [7] 98 % of control | [18] 95 % of control | [19] 118 % of control | [20] 90 % of control

CCOc1ccc(C(=O)C(C)CN2CCN(C)CC2)cc1 (stereo unspecified)
inactive: [13] 98 % of control

Cc1ccc(C(CCC#N)OC(C)C)cc1 (stereo unspecified)
inactive: [6] 95 % of control | [17] 96 % of control | [7] 92 % of control | [18] 101 % of control | [19] 97 % of control | [20] 92 % of control

CCOC(=O)C1(C(=O)OCC)CC(C)C1
inactive: [10] 101 % of control | [11] 101 % of control | [21] 108 % of control | [12] 93 % of control | dose: 400.0 mg/kg/injection, schedule: Q01DX009 (ip), vehicle: saline 96 % of control | [22] 104 % of control

CCOC(=O)c1cnc(SC)nc1Nc1ccc(F)cc1
inactive: [17] 88 % of control | [18] 100 % of control | [20] 95 % of control

O=C(Nc1ccccc1)Oc1c(Cl)cc(Cl)c(Cl)c1[N+](=O)[O-]
inactive: [15] 100 % of control | [16] 93 % of control | [6] 91 % of control

CC(C)COC(=O)c1cc(O)c(O)c(O)c1
inactive: [23] 100 % of control | [1] 97 % of control | [24] 107 % of control | [2] 105 % of control | [25] 107 % of control | [3] 95 % of control

C=C1C(=O)OC2C3OC(C)(CCC(O)C3COC(C)=O)CC(OC(=O)/C(=C/C)COC(C)=O)C12 (stereo unspecified)
inactive: dose: 6.25 mg/kg/injection, schedule: Q01DX009 (ip), vehicle: Klucel (hydroxypropylcellulose) (HPC) 100 % of control | dose: 12.5 mg/kg/injection, schedule: Q01DX009 (ip), vehicle: Klucel (hydroxypropylcellulose) (HPC) 97 % of control | [15] 103 % of control

O=C(C1C2CCC(CC2)C1C(=O)N1CCOCC1)N1CCOCC1 (stereo unspecified)
inactive: [11] 100 % of control | [12] 100 % of control | [22] 103 % of control

Cc1ccc(O)c(C(c2cc(S(=O)(=O)O)c(O)cc2C)N2CN(C(c3cc(S(=O)(=O)O)c(O)cc3C)c3cc(C)ccc3O)C2=O)c1 (stereo unspecified)
inactive: [4] 101 % of control | [5] 93 % of control

O=S(=O)(c1ccccc1)C(CCCC(C(O)(c1ccccc1)c1ccccc1)S(=O)(=O)c1ccccc1)C(O)(c1ccccc1)c1ccccc1 (stereo unspecified)
inactive: [1] 98 % of control | [2] 100 % of control | [3] 105 % of control

CCCCCCCCCCC(=O)CCCC
inactive: [23] 100 % of control | [24] 102 % of control | [25] 104 % of control

O=C1NC(=O)C(c2ccc(Cl)cc2)(c2ccccc2Cl)N1 (stereo unspecified)
inactive: [17] 95 % of control | [18] 102 % of control | [20] 98 % of control

OC1CCCCC1Cc1ccccc1 (stereo unspecified)
inactive: dose: 100.0 mg/kg/injection, schedule: Q04DX003 (ip), vehicle: gum acacia 102 % of control | dose: 200.0 mg/kg/injection, schedule: Q04DX003 (ip), vehicle: gum acacia 96 % of control | dose: 400.0 mg/kg/injection, schedule: Q04DX003 (ip), vehicle: gum acacia 98 % of control

CN=C(Nc1ccccc1C)SC
inactive: [9] 100 % of control | [13] 98 % of control | [11] 100 % of control | [14] 102 % of control | [12] 106 % of control

CC(=O)N(C1=C(Cl)C(=O)c2ccccc2C1=O)c1ccc(Cl)cc1
inactive: dose: 75.0 mg/kg/injection, schedule: Q01DX001 (ip), vehicle: carboxymethylcellulose (CMC) 93 % of control | dose: 150.0 mg/kg/injection, schedule: Q01DX001 (ip), vehicle: carboxymethylcellulose (CMC) 92 % of control

CN(C)C1CCC(/C=C(\C#N)C2CCC([N+](=O)[O-])CC2)CC1 (stereo unspecified)
inactive: dose: 25.0 mg/kg/injection, schedule: Q04DX002 (ip), vehicle: Klucel (hydroxypropylcellulose) (HPC) 109 % of control | [16] 106 % of control | dose: 50.0 mg/kg/injection, schedule: Q04DX002 (ip), vehicle: Klucel (hydroxypropylcellulose) (HPC) 95 % of control | [6] 106 % of control | dose: 100.0 mg/kg/injection, schedule: Q04DX002 (ip), vehicle: Klucel (hydroxypropylcellulose) (HPC) 95 % of control | [7] 102 % of control | dose: 200.0 mg/kg/injection, schedule: Q04DX002 (ip), vehicle: Klucel (hydroxypropylcellulose) (HPC) 95 % of control and 100 % of control | dose: 400.0 mg/kg/injection, schedule: Q04DX002 (ip), vehicle: Klucel (hydroxypropylcellulose) (HPC) 103 % of control

O=C(Nc1ccc(S(=O)(=O)N2CCCCC2)cc1)OC(c1ccccc1)(c1ccccc1)c1ccccc1
inactive: dose: 100.0 mg/kg/injection, schedule: Q01DX001 (ip), vehicle: carboxymethylcellulose (CMC) 94 % of control | dose: 200.0 mg/kg/injection, schedule: Q01DX001 (ip), vehicle: carboxymethylcellulose (CMC) 91 % of control | dose: 400.0 mg/kg/injection, schedule: Q01DX001 (ip), vehicle: carboxymethylcellulose (CMC) 89 % of control

CCN=C1C=C/C(=C(/c2ccc(NCC)c(C)c2)c2cc(O)c(S(=O)(=O)O)cc2S(=O)(=O)O)C=C1C
inactive: [8] 97 % of control | [10] 97 % of control | [21] 104 % of control

O=C(NC1CC1(c1ccccc1)c1ccccc1)NC1CC1(c1ccccc1)c1ccccc1 (stereo unspecified)
inactive: dose: 300.0 mg/kg/injection, schedule: Q01DX001 (ip), vehicle: other 86 % of control
